Measurements taken from ChEMBL document CHEMBL4619826, “Insights into the Molecular Determinants Involved in Urocontrin and Urocontrin A Action” (ACS Med Chem Lett, 2020).
pEC50, pIC50: −log10 of the molar value.

What was measured:
Urotensin-2 receptor = target: T1, Urotensin-2 receptor (Homo sapiens, UniProt Q9UKP6); assay: Antagonist activity at human UT receptor expressed in HEK293 cells using Na [125I] incubated for 2 hrs by gamma counting method; type: cell-based
T1 sequence (Q9UKP6 whole entry): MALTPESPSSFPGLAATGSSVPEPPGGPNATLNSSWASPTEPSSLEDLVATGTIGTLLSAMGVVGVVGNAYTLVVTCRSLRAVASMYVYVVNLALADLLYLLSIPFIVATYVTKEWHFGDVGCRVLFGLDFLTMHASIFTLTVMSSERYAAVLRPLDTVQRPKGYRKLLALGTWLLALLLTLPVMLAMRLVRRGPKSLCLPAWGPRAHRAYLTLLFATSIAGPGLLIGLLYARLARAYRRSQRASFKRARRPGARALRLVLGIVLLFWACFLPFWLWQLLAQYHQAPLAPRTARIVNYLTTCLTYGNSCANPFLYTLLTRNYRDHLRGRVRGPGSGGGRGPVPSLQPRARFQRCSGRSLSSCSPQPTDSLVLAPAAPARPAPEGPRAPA

Thoracic aorta [1] = assay: Contractile activity in Sprague-Dawley rat thoracic aorta assessed as contraction in aortic ring preincubated ofr 30 mins followed by URP or human U2-stimulation; type: functional, tissue-based
Thoracic aorta [2] = assay: Contractile activity in Sprague-Dawley rat thoracic aorta assessed as ratio of KCl-induced contraction to human U2-induced contraction in aortic ring at 10^-11 to 3 x 10^-6 M relative to control; type: functional
Thoracic aorta [3] = assay: Contractile activity in Sprague-Dawley rat thoracic aorta assessed as ratio of KCl-induced contraction to human U2-induced contraction in aortic ring at 10^-6 M (reference value: 101 +/- 4 %); type: functional
Thoracic aorta [4] = assay: Contractile activity in Sprague-Dawley rat thoracic aorta assessed as ratio of KCl-induced contraction to human U2-induced contraction in aortic ring at 3 x 10^-6 M (reference value: 101 +/- 4 %); type: functional
Thoracic aorta [5] = assay: Contractile activity in Sprague-Dawley rat thoracic aorta assessed as contraction in aortic ring preincubated ofr 30 mins followed by human U2-stimulation (reference value: 8.59 +/- 0.12); type: functional, tissue-based
Thoracic aorta [6] = assay: Contractile activity in Sprague-Dawley rat thoracic aorta assessed as contraction in aortic ring preincubated ofr 30 mins followed by URP-stimulation (reference value: 8.16 +/- 0.08); type: functional, tissue-based
Thoracic aorta [7] = assay: Contractile activity in Sprague-Dawley rat thoracic aorta assessed as ratio of KCl-induced contraction to URP-induced contraction in aortic ring at 10^-6 M (reference value: 107 +/- 3 %); type: functional
Thoracic aorta [8] = assay: Contractile activity in Sprague-Dawley rat thoracic aorta assessed as ratio of KCl-induced contraction to URP-induced contraction in aortic ring at 10^-5 M (reference value: 107 +/- 3 %); type: functional
Thoracic aorta [9] = assay: Contractile activity in Sprague-Dawley rat thoracic aorta assessed as ratio of KCl-induced contraction to URP-induced contraction in aortic ring at 3 x 10^-6 M (reference value: 107 +/- 3 %); type: functional
Thoracic aorta [10] = assay: Contractile activity in Sprague-Dawley rat thoracic aorta assessed as contraction in aortic ring at 10^-5 M relative to control; type: functional
Thoracic aorta [11] = assay: Contractile activity in Sprague-Dawley rat thoracic aorta assessed as ratio of KCl-induced contraction to human U2-induced contraction in aortic ring at 10^-5 M (reference value: 101 +/- 4 %); type: functional

Compound | pIC50 (Urotensin-2 receptor) | pEC50 (Thoracic aorta [1]) | Emax (Thoracic aorta [2]) | Emax at 1 µM (Thoracic aorta [3]) | Emax at 3 µM (Thoracic aorta [4]) | pEC50 (Thoracic aorta [5]) | pEC50 (Thoracic aorta [6]) | Emax at 1 µM (Thoracic aorta [7]) | Emax at 10 µM (Thoracic aorta [8]) | Emax at 3 µM (Thoracic aorta [9]) | Emax at 10 µM (Thoracic aorta [10]) | Emax at 10 µM (Thoracic aorta [11])
CC(C)[C@H](NC(=O)[C@@H]1CSSC[C@H](NC(=O)[C@H](C)N)C(=O)N[C@@H](Cc2ccccc2)C(=O)N[C@@H](Cc2c[nH]c3ccccc23)C(=O)N[C@@H](CCCCN)C(=O)N[C@@H](Cc2ccc(O)cc2)C(=O)N1)C(=O)O | 8.29 | 8.16 | 107% | – | – | – | – | – | – | – | – | –
CC(C)[C@H](NC(=O)[C@@H]1CSSC[C@H](NC(=O)[C@H](C)N)C(=O)N[C@@H](Cc2ccccc2)C(=O)N[C@@H](Cc2ccc(-c3ccsc3)cc2)C(=O)N[C@@H](CCCCN)C(=O)N[C@@H](Cc2ccc(O)cc2)C(=O)N1)C(=O)O | 7.44 | < 5.50 | – | 105% | 20% | 8.12 | 7.89 | 115% | – | – | – | –
CC(C)[C@H](NC(=O)[C@@H]1CSSC[C@H](NC(=O)[C@H](C)N)C(=O)N[C@@H](Cc2ccccc2)C(=O)N[C@@H](Cc2ccc(-c3ccncc3)cc2)C(=O)N[C@@H](CCCCN)C(=O)N[C@@H](Cc2ccc(O)cc2)C(=O)N1)C(=O)O | 6.81 | < 5.50 | – | 70% | 5 to 25% | 8.35 to 8.85 | 8.19 to 8.53 | 96% | 92% | 94% | 9% | –
CC(C)[C@H](NC(=O)[C@@H]1CSSC[C@H](NC(=O)[C@H](C)N)C(=O)N[C@@H](Cc2ccccc2)C(=O)N[C@@H](Cc2ccc(OCc3ccccc3)cc2)C(=O)N[C@@H](CCCCN)C(=O)N[C@@H](Cc2ccc(O)cc2)C(=O)N1)C(=O)O | – | < 5.50 | – | – | 80% | – | – | – | – | – | – | –
CC(C)[C@H](NC(=O)[C@@H]1CSSC[C@H](NC(=O)[C@H](C)N)C(=O)N[C@@H](Cc2ccccc2)C(=O)N[C@@H](Cc2ccc(-c3cccnc3)cc2)C(=O)N[C@@H](CCCCN)C(=O)N[C@@H](Cc2ccc(O)cc2)C(=O)N1)C(=O)O | 6.99 | < 5.50 | – | 94% | 24% | 8.68 | 8.07 | 102% | – | – | – | –
CC(C)[C@H](NC(=O)[C@@H]1CSSC[C@H](NC(=O)[C@H](C)N)C(=O)N[C@@H](Cc2ccccc2)C(=O)N[C@H](Cc2ccc(-c3ccccc3)cc2)C(=O)N[C@@H](CCCCN)C(=O)N[C@@H](Cc2ccc(O)cc2)C(=O)N1)C(=O)O | 8.50 | 7.32 | 97% | – | – | – | – | – | – | – | – | –
CC(C)[C@H](NC(=O)[C@@H]1CSSC[C@H](NC(=O)[C@H](C)N)C(=O)N[C@@H](Cc2ccccc2)C(=O)N[C@@H](Cc2ccc(-c3ccc(-c4ccccc4)cc3)cc2)C(=O)N[C@@H](CCCCN)C(=O)N[C@@H](Cc2ccc(O)cc2)C(=O)N1)C(=O)O | 6.87 | 8.11 | 9% | 79% | 65% | 8.47 to 8.65 | 7.92 to 8.18 | 99% | 92% | 95% | – | 55%
CC(C)[C@H](NC(=O)[C@@H]1CSSC[C@H](NC(=O)[C@H](C)N)C(=O)N[C@@H](Cc2ccccc2)C(=O)N[C@H](Cc2ccc(C#Cc3ccccc3)cc2)C(=O)N[C@@H](CCCCN)C(=O)N[C@@H](Cc2ccc(O)cc2)C(=O)N1)C(=O)O | 7.92 | 7.55 | 99% | – | – | – | – | – | – | – | – | –
CC(C)[C@H](NC(=O)[C@@H]1CSSC[C@H](NC(=O)[C@H](C)N)C(=O)NC(Cc2ccccc2)C(=O)N[C@H](Cc2ccc(I)cc2)C(=O)N[C@@H](CCCCN)C(=O)N[C@@H](Cc2ccc(O)cc2)C(=O)N1)C(=O)O (stereo in doubt) | 8.61 | 7.54 | 114% | – | – | – | – | – | – | – | – | –
